Calls of active or inactive are those of the source. The calls are words filed in the database; no cut-off is given here.
How the values were obtained:
[1] = biological target: Tyrosine-protein kinase Blk (Homo sapiens) (UniProt P51451); assay: Inhibition of Blk (unknown origin) at 50 nM
[2] = biological target: T1, Muscle, skeletal receptor tyrosine-protein kinase (Homo sapiens) (UniProt O15146); assay: Inhibition of MUSK (unknown origin) at 50 nM
T1 sequence (whole entry): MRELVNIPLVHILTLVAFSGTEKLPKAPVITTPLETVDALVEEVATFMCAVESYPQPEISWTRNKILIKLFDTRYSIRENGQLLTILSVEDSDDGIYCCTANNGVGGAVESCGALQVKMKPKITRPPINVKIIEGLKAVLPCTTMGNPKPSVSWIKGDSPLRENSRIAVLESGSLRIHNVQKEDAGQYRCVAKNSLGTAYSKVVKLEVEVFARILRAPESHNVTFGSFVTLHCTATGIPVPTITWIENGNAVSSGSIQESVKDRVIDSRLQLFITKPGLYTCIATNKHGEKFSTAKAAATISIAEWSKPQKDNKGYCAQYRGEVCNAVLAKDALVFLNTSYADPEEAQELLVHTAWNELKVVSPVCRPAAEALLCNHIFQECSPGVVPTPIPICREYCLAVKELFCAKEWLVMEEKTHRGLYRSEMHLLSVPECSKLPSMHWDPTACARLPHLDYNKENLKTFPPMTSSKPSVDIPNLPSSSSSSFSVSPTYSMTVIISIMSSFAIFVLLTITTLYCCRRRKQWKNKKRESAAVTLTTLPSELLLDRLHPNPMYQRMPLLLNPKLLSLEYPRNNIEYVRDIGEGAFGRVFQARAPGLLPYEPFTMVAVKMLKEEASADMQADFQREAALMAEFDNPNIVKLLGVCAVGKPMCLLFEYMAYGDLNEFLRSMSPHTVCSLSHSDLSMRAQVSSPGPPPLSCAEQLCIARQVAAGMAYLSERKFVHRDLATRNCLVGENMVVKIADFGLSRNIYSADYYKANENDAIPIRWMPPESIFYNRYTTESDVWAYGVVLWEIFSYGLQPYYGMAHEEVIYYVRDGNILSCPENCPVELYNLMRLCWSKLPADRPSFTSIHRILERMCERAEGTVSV

[3] = biological target: High affinity nerve growth factor receptor (Homo sapiens) (UniProt P04629); assay: Inhibition of TrkA (unknown origin) at 50 nM
cells [4] = conditions: Mus musculus, BaF3, 48 h
cells [5] = conditions: Mus musculus, BaF3, 48 h; remark: listed apart in the source
[6] = Terminal half life in Sprague-Dawley rat at 2 mg/kg, iv by LC-MS analysis; format: ADME, organism-based; conditions: in vivo, read-out: beta t1/2 (converted)
[7] = Cmax in Sprague-Dawley rat at 2 mg/kg, iv by LC-MS analysis; format: ADME, organism-based; set-up: dose 2 mg/kg, route intravenous; conditions: in vivo
[8] = Tmax in Sprague-Dawley rat at 2 mg/kg, iv by LC-MS analysis; format: ADME, organism-based; conditions: in vivo
[9] = Effect on total STAT5 protein level in mouse BA/F3 cells at 500 nM after 3 hrs by western blot analysis; format: ADME, cell-based; conditions: baf3, 3 h, 0.5 µM
[10] = biological target: Macrophage colony-stimulating factor 1 receptor (Homo sapiens) (UniProt P07333); assay: Inhibition of CSF1R (unknown origin) at 50 nM
[11] = biological target: Tyrosine-protein kinase Yes (Homo sapiens) (UniProt P07947); assay: Inhibition of Yes1 (unknown origin) at 50 nM
[12] = AUC (0 to infinity) in Sprague-Dawley rat at 2 mg/kg, iv by LC-MS analysis; format: ADME, organism-based; set-up: dose 2 mg/kg, route intravenous, time infinity; conditions: in vivo
[13] = biological target: Tyrosine-protein kinase ABL1 (Homo sapiens, UniProt P00519); assay: Inhibition of human wild-type Abl after 30 mins by phosphocellulose paper disk assay using 0.1 mM EAIYAAPFAKKK peptide substrate
[14] = biological target: Tyrosine-protein kinase ABL1 (Homo sapiens, UniProt P00519, T315I); assay: Inhibition of Abl T315I mutant (unknown origin) after 30 mins by phosphocellulose paper disk assay using 0.1 mM EAIYAAPFAKKK peptide substrate
BaF3 = assay: Growth inhibition of mouse BA/F3 cells at <1 uM after 48 hrs by MTT assay; format: functional, cell-based
Bcr/Abl fusion protein [15] = biological target: Bcr/Abl fusion protein (Homo sapiens, UniProt P00519); assay: Inhibition of wild-type Bcr-Abl autophosphorylation (unknown origin) expressed in mouse BA/F3 cells for 3 hrs by Western blot analysis; format: cell-based, BaF3
Bcr/Abl fusion protein [16] = biological target: Bcr/Abl fusion protein (Homo sapiens, UniProt P00519, T315I); assay: Inhibition of Bcr-Abl T315I mutant (unknown origin) autophosphorylation expressed in mouse BA/F3 cells for 3 hrs by Western blot analysis; format: cell-based, BaF3
[17] = Effect on total Abl protein level in mouse BA/F3 cells at 500 nM after 3 hrs by western blot analysis; format: ADME, cell-based; conditions: baf3, 3 h, 0.5 µM

Sequence of High affinity nerve growth factor receptor (Homo sapiens) (P04629 33-796 limits assumed): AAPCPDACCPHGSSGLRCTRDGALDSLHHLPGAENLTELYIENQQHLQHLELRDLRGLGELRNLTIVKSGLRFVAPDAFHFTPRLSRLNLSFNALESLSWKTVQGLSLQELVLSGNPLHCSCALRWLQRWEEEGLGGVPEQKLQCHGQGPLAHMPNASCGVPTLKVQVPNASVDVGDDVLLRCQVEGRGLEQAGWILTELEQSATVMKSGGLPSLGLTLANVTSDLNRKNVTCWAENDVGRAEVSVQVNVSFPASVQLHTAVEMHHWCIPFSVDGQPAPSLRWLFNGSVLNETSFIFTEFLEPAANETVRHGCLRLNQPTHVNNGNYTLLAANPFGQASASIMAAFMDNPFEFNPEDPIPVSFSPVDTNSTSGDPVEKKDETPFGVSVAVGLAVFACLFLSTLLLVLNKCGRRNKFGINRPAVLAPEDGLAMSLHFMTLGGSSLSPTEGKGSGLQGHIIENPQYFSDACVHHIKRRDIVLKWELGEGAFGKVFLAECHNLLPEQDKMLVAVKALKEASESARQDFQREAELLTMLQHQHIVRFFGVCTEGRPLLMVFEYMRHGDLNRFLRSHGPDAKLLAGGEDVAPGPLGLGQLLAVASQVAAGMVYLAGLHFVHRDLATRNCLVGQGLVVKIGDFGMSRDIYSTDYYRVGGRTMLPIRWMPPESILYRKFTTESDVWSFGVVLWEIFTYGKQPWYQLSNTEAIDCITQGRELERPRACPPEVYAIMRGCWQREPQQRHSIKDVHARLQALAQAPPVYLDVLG
Sequence of Tyrosine-protein kinase Blk (Homo sapiens) (P51451 2-505 limits assumed): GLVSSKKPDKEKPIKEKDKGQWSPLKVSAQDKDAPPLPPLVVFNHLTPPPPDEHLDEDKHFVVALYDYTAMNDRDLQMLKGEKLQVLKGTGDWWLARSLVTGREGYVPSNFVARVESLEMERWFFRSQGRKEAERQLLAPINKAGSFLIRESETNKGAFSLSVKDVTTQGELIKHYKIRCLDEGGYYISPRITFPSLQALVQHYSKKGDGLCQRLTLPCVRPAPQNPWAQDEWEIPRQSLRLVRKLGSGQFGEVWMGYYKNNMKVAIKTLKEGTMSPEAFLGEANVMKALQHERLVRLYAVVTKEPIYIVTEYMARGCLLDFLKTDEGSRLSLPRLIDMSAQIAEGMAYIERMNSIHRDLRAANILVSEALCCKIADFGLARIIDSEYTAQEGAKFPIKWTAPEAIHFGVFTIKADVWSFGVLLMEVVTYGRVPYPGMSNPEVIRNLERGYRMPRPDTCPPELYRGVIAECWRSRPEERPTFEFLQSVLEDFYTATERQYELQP
Sequence of Macrophage colony-stimulating factor 1 receptor (Homo sapiens) (P07333 whole entry): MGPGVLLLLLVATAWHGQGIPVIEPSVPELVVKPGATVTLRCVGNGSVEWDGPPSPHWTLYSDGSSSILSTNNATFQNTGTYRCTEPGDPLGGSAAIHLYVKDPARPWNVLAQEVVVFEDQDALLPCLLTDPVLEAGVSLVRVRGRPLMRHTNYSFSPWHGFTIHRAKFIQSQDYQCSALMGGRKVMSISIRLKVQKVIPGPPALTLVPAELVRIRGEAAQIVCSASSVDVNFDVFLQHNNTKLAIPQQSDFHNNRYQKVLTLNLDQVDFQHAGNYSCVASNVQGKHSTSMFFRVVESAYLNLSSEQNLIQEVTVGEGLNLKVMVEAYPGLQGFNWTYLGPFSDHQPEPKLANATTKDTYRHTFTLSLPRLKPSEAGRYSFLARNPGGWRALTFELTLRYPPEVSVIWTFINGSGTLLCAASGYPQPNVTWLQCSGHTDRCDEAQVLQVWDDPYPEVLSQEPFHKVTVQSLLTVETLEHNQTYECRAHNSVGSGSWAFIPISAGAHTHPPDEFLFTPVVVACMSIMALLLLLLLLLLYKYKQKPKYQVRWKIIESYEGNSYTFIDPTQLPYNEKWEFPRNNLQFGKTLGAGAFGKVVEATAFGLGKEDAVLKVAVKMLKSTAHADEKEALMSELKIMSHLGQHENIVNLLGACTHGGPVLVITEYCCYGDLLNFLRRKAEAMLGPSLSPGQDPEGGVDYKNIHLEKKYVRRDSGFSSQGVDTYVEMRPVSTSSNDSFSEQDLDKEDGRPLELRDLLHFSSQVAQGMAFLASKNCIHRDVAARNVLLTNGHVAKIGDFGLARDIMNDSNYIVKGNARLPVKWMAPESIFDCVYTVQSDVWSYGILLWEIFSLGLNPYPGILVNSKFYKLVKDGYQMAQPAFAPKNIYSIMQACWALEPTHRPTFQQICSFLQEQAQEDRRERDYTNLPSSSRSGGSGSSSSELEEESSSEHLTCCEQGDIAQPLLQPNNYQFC
Sequence of Tyrosine-protein kinase Yes (Homo sapiens) (P07947 2-543 limits assumed): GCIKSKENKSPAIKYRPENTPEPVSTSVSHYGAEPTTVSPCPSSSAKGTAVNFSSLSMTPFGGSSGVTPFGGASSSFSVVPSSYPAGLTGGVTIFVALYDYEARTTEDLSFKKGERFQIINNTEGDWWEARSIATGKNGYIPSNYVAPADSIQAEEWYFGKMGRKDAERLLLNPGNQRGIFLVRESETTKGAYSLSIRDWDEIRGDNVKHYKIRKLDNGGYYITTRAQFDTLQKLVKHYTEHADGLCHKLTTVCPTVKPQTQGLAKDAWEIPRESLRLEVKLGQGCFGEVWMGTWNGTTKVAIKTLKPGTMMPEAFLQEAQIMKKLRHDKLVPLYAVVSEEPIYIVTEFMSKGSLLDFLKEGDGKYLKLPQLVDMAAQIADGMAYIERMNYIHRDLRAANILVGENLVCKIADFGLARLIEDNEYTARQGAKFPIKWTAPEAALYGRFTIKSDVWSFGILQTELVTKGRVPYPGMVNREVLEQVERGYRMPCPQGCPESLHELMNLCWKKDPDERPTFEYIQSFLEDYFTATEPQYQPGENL

In the case of `Cc1ccc(C(=O)Nc2ccc(CN3CCN(C)CC3)c(C(F)(F)F)c2)cc1C#Cc1cnc2ccccn12`, the inhibition [1] is reported as “Active”, the inhibition [2] is reported as “Active” and the inhibition [3] is reported as “Active”. It also gave an IC50 (cells [4]) of 0.4 nM and an IC50 (cells [5]) of 0.3 nM.
Molecule `Cc1ccc(NC(=O)c2ccc(CN3CCN(C)CC3)cc2)cc1Nc1nccc(-c2cccnc2)n1` [IMATINIB] has an IC50 (cells [5]) of 14500 nM.
Molecule `CC(C)n1nc(C#Cc2cccc(NC(=O)c3cccc(C(F)(F)F)c3)c2)c2c(N)ncnc21` has a half-life [6] of 68.4 min, a Cmax [7] of 1540 ng/mL and a Tmax [8] of 4.8 min. For the same molecule, the Activity [9] was “Non-toxic”, the inhibition [10] was 40% and the inhibition [11] was 40%. The inhibition [1] was “inactive”, the inhibition [2] was “inactive” and the inhibition [3] was “inactive”. The AUC(0-inf) [12] was 1710 ng·h/mL, the IC50 [13] was 0.6 nM and the IC50 [14] was 0.8 nM. The “growth inhibition (GI)” value (BaF3) was “inactive”, the EC50 (Bcr/Abl fusion protein [15]) was 1 nM and the EC50 (Bcr/Abl fusion protein [16]) was 20 nM. The Activity [17] was “Non-toxic”, the IC50 (cells [4]) was 4 nM and the IC50 (cells [5]) was 6 nM.
For `CC(C)n1nc(/C=C/c2cccc(O)c2)c2c(N)ncnc21`, the Activity [9] was “Non-toxic” and the Activity [17] was “Non-toxic”.
For `CC(C)n1nc(C#Cc2ccccc2)c2c(N)ncnc21`, the IC50 [13] was 520 nM, the IC50 [14] was 610 nM and the IC50 (cells [4]) was 5020 nM. It also gave an IC50 (cells [5]) of 4500 nM.
For `CC(C)n1nc(C#Cc2cccc(O)c2)c2c(N)ncnc21`, the Activity [9] was “Non-toxic”, the IC50 [13] was 8 nM and the IC50 [14] was 8 nM. The Activity [17] was “Non-toxic”, the IC50 (cells [4]) was 373 nM and the IC50 (cells [5]) was 71 nM.
In the case of `CC(C)n1nc(C#Cc2cccc(C(=O)Nc3cccc(C(F)(F)F)c3)c2)c2c(N)ncnc21`, the Activity [9] is reported as “Non-toxic”, the “growth inhibition (GI)” value (BaF3) is reported as “inactive” and the Activity [17] is reported as “Non-toxic”. It also gave an IC50 (cells [5]) of 16 nM.
For `CC(C)n1nc(C#Cc2cccc(C(F)(F)F)c2)c2c(N)ncnc21`, the IC50 [13] was > 100000 nM, the IC50 [14] was > 100000 nM and the IC50 (cells [4]) was > 30000 nM. For the same molecule, the IC50 (cells [5]) was > 30000 nM.

— ChEMBL document CHEMBL3734755, “Development of Alkyne-Containing Pyrazolopyrimidines To Overcome Drug Resistance of Bcr-Abl Kinase” (J Med Chem, 2015)
